Measurements published in BindingDB's records for doi:10.1021/acs.jmedchem.5b01170 (University of Arizona, 2015).
pIC50: −log10 of the molar value.

Molecular target: Delta-type opioid receptor (Mus musculus, UniProt P32300)
Test: Agonist activity at delta opioid receptor in ICR mouse isolated vas deferens assessed as inhibition of electrically-stimulated muscle contraction

Sequence of Delta-type opioid receptor (P32300 whole entry): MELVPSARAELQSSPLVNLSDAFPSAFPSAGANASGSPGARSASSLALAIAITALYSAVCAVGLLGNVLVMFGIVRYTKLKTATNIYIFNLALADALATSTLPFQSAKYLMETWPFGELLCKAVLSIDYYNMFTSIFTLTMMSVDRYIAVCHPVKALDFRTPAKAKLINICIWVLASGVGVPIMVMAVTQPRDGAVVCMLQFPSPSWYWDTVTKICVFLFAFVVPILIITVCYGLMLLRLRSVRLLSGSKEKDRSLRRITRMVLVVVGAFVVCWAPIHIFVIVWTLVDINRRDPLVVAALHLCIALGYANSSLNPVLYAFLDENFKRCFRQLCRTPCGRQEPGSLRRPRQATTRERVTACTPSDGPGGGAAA

CC(C)C[C@H](NC(=O)[C@@H]1CCCN1C(=O)[C@H](Cc1ccc(F)cc1)NC(=O)CNC(=O)[C@@H](C)NC(=O)[C@@H](N)Cc1ccc(O)cc1)C(=O)N[C@@H](Cc1c[nH]c2ccccc12)C(=O)NCc1cc(C(F)(F)F)cc(C(F)(F)F)c1 was tested, and the pIC50 was 7.92.
